Results taken from patent US20240240224A1, “FLUORESCENT D-TYPE AMINO ACID METABOLISM MARKER-BASED METHOD FOR DETECTING ANTIBACTERIAL DRUG SENSITIVITY TEST” (priority 2020, published 2024).
In brackets after ≈: the same amount, converted by molar mass.

How the values were obtained:
[1] = tested on: E. coli Ec11; test: BMD susceptibility test; type: cell-based, Escherichia coli; details: unit assumed
[2] = tested on: E. coli Ec11; test: FaAST (FDAA metabolic labeling); type: cell-based, Escherichia coli; details: unit assumed
Description: (§1) The specific experimental steps are as follows: • 1. Take the colony to be tested that has been cultured overnight on the plate and fully mix it in normal saline to make a uniform bacterial solution. Dilute it into CAMHB medium to make a bacterial solution with OD600=0.05. • 2. Add 45 μl antibiotic solutions to be tested of different concentrations to 96-well plates (see Table 3 for antibiotic concentration gradient settings). • 3. Add 50 μl of bacterial solution prepared in Step 1 to the 96-well plate and mix well. • 4.5 μl of 10 mM Cy5-DAA probe was added to each well (final concentration was 0.15 mM, and its structure was shown in FIG. 1). After mixing, the probe was incubated for 2 hours in the dark. • 5. After dilution with 200 μl PBS solution, the fluorescence intensity of each sample was detected by flow cytometry. The flow detection results are shown in the attached FIG. 4-5, showing the curve of antibiotic concentration gradient and fluorescence intensity, and the MIC (minimum inhibitory concentration) is obtained by referring to this curve.
(§2) Antibiotic resistant strains are shown in bold in the table below.

[3] = tested on: Ec ATCC 25922; test: FaAST (FDAA metabolic labeling); type: cell-based, Escherichia coli; details: unit assumed
Description: as §1, §2

[4] = tested on: E. coli Ec13; test: BMD susceptibility test; type: cell-based, Escherichia coli; details: unit assumed
[5] = tested on: E. coli Ec13; test: FaAST (FDAA metabolic labeling); type: cell-based, Escherichia coli; details: unit assumed
Description: as §1, with “cytometry.” for “cytometry. The flow detection results are shown in the attached FIG. 4-5, showing the curve of antibiotic concentration gradient and fluorescence intensity, and the MIC (minimum inhibitory concentration) is obtained by referring to this curve.”

[6] = tested on: Ec ATCC 25922; test: BMD susceptibility test; type: cell-based, Escherichia coli; details: unit assumed
[7] = tested on: P. aeruginosa Pa2; test: BMD susceptibility test; type: cell-based, Pseudomonas aeruginosa; details: unit assumed
[8] = tested on: P. aeruginosa Pa3; test: BMD susceptibility test; type: cell-based, Pseudomonas aeruginosa; details: unit assumed
[9] = tested on: P. aeruginosa Pa2; test: FaAST (FDAA metabolic labeling); type: cell-based, Pseudomonas aeruginosa; details: unit assumed
Description: as §1, §2

[10] = tested on: P. aeruginosa Pa3; test: FaAST (FDAA metabolic labeling); type: cell-based, Pseudomonas aeruginosa; details: unit assumed
Description: as §1, §2

[11] = tested on: Pa ATCC 27853; test: FaAST (FDAA metabolic labeling); type: cell-based, Pseudomonas aeruginosa; details: unit assumed
Description: as §1, §2

[12] = tested on: Pa ATCC 27853; test: BMD susceptibility test; type: cell-based, Pseudomonas aeruginosa; details: unit assumed
[13] = tested on: A. baumannii Ab19; test: BMD susceptibility test; type: cell-based, Acinetobacter baumannii; details: unit assumed
[14] = tested on: A. baumannii Ab19; test: FaAST (FDAA metabolic labeling); type: cell-based, Acinetobacter baumannii; details: unit assumed
Description: as §1, §2

[15] = tested on: K. pneumoniae Kp6; test: BMD susceptibility test; type: cell-based, Klebsiella pneumoniae; details: unit assumed
[16] = tested on: K. pneumoniae Kp6; test: FaAST (FDAA metabolic labeling); type: cell-based, Klebsiella pneumoniae; details: unit assumed
Description: as §1, with “cytometry.” for “cytometry. The flow detection results are shown in the attached FIG. 4-5, showing the curve of antibiotic concentration gradient and fluorescence intensity, and the MIC (minimum inhibitory concentration) is obtained by referring to this curve.”

[17] = tested on: Klebsiella pneumoniae KPN6; test: FaAST with DAA-Tetra probe; type: cell-based; details: unit assumed
Description: (§3) The specific experimental steps are as follows: • 1. The tested colonies cultured overnight on the plate were picked and mixed thoroughly in 2× Cation-Adjusted Mueller Hinton Broth medium (2×CAMHB) to make bacterial suspension with turbidity of OD600=0.1. • 2. […] Add 50 μL of the bacterial solution prepared in step 1 (the final concentration of the bacterial solution is OD600=0.05) to the 96-well plate, and add 5 μL of 3 mM DAA-Tetra probe (the final concentration is 0.15 mM), mix well, and incubate in the dark at 37° C. 120 rpm for 2 hours. • 4. After culture, dilute the mixed bacterial solution 10 times with PBS solution, and detect the fluorescence intensity of each sample with flow cytometry. The flow detection result is shown in FIG. 14-19, and the arrow is for the MIC value. The minimum inhibitory concentration of antibiotics was obtained according to the fluorescence signal intensity of flow detection, and the statistical results are shown in Table 6.

[18] = tested on: Klebsiella pneumoniae KPN6; test: VITEK drug sensitivity test; type: cell-based; details: unit assumed
[19] = tested on: Ec ATCC 25922; details: cited from earlier work
[20] = tested on: Pa ATCC 27853; details: cited from earlier work
[21] = tested on: E.coli 1113; test: FDAA metabolic labeling susceptibility test (Cy5-DAA probe, flow cytometry); type: cell-based, Escherichia coli; details: Escherichia coli; E.coli 1113; Cy5-DAA probe, 2 hours; read-out: MIC, FDAA
Description: as §1

[22] = tested on: E.coli 1146; test: as above; type: cell-based, Escherichia coli; details: Escherichia coli; E.coli 1146; Cy5-DAA probe, 2 hours; read-out: MIC, FDAA
Description: as §1

[23] = tested on: E.coli 1113; test: Vitek 2 drug sensitivity test; type: cell-based, Escherichia coli; for Sensibility: key: S: Drug sensitive; R: Drug resistance
[24] = tested on: E.coli 1146; test: Vitek 2 drug sensitivity test; type: cell-based, Escherichia coli; details: for MIC: Escherichia coli; for Sensibility: key: S: Drug sensitive; R: Drug resistance
[25] = tested on: A. baumannii Ab16; test: BMD susceptibility test; type: cell-based, Acinetobacter baumannii; details: unit assumed
[26] = tested on: A. baumannii Ab16; test: FaAST (FDAA metabolic labeling); type: cell-based, Acinetobacter baumannii; details: unit assumed
Description: as §1, with “cytometry.” for “cytometry. The flow detection results are shown in the attached FIG. 4-5, showing the curve of antibiotic concentration gradient and fluorescence intensity, and the MIC (minimum inhibitory concentration) is obtained by referring to this curve.”

[27] = tested on: K. pneumoniae Kp9; test: BMD susceptibility test; type: cell-based, Klebsiella pneumoniae; details: unit assumed
[28] = tested on: bacteria contained in alveolar lavage fluid; test: FDAA metabolic labeling susceptibility test of alveolar lavage fluid (Cy5-DAA probe); type: cell-based; details: alveolar lavage fluid of patients with hospital acquired pneumonia, 2 hours
Description: (§4) With reference to the flow chart of the rapid detection method of antimicrobial susceptibility test based on FDAA metabolic markers shown in FIG. 3, FDAA is used for the detection of antimicrobial susceptibility test of alveolar lavage fluid. The specific experimental steps are as follows: • 1. Mix bronchoalveolar lavage fluid (BALF, 10 ml) of patients with hospital acquired pneumonia with cation regulated broth medium (CAMHB, 10 ml) of twice the concentration to prepare the bacterial fluid to be tested. • 2. Add 45 μl antibiotic solutions of different concentrations to the 96-well plate separately (see Table 1 for antibiotic concentration gradient settings). • 3. Add 50 μl of the bacterial solution prepared in step 1 to the 96-well plate and mix well. • 4. Add 5 μl of 10 mM Cy5-DAA probe (final concentration 0.15 mM, see FIG. 1 for its structure) into each well, mix well, and then cultivate in dark for 2 hours. • 5. Add 200 μl PBS solution for dilution, and then use flow cytometry to detect the fluorescence intensity of each sample.

[29] = tested on: bacteria contained in alveolar lavage fluid; test: Vitek 2 drug sensitivity test of alveolar lavage fluid; type: cell-based; for Sensibility: key: S: Drug sensitive; R: Drug resistance
[30] = tested on: Escherichia coli ECO922; test: VITEK drug sensitivity test; type: cell-based; details: unit assumed
[31] = tested on: Escherichia coli ECO922; test: FaAST with DAA-Tetra probe; type: cell-based; details: unit assumed
Description: as §3

[32] = tested on: Escherichia coli ECO15; test: VITEK drug sensitivity test; type: cell-based; details: unit assumed
[33] = tested on: Escherichia coli ECO15; test: FaAST with DAA-Cy5-2 probe; type: cell-based; details: unit assumed
Description: as §4
The specific steps are the same as in Example 5. […] The minimum inhibitory concentration of antibiotics was obtained according to the fluorescence signal intensity of flow detection, and the statistical results are shown in Table 7.

| Structure (SMILES) | BMD (MIC) [1] [µg/mL] | FaAST (MIC) [2] [µg/mL] | FaAST (MIC) [3] [µg/mL] | BMD (MIC) [4] [µg/mL] | FaAST (MIC) [5] [µg/mL] | BMD (MIC) [6] [µg/mL] | BMD (MIC) [7] [µg/mL] | BMD (MIC) [8] [µg/mL] | FaAST (MIC) [9] [µg/mL] | FaAST (MIC) [10] [µg/mL] | FaAST (MIC) [11] [µg/mL] | BMD (MIC) [12] [µg/mL] | BMD (MIC) [13] [µg/mL] | FaAST (MIC) [14] [µg/mL] | BMD (MIC) [15] [µg/mL] | FaAST (MIC) [16] [µg/mL] | CLSI QC range [19] | CLSI QC range [20] | MIC [21] [µg/mL] | MIC [22] [µg/mL] | other results |
| --- | --- | --- | --- | --- | --- | --- | --- | --- | --- | --- | --- | --- | --- | --- | --- | --- | --- | --- | --- | --- | --- |
| NCC[C@H](O)C(=O)N[C@@H]1C[C@H](N)[C@@H](O[C@H]2O[C@H](CN)[C@@H](O)[C@H](O)[C@H]2O)[C@H](O)[C@H]1O[C@H]1O[C@H](CO)[C@@H](O)[C@H](N)[C@H]1O [Amikacin] | 4 | 8 | 2 | 2 | 1 | 1 | 2 | 4 | 0.5 | 8 | 4 | 2 | 2 | 2 | 0.5 | 0.5 | 0.5-4^ | 1-4 | – | – | MIC, FaAST [17]: 0.5 µg/mL (≈ 0.854 µM); MIC, VITEK [18]: 0.5 µg/mL (≈ 0.854 µM) |
| CO/N=C(\C(=O)N[C@@H]1C(=O)N2C(C(=O)[O-])=C(C[N+]3(C)CCCC3)CS[C@H]12)c1csc(N)n1 [Cefepime, cefepime] | ≤ 0.25 | 0.5 | ≤ 0.25 | > 64 | > 128 | ≤ 0.25 | 1 | 8 | 0.5 | 4 | 2 | 2 | 1 | 1 | ≤ 0.25 | 0.5 | 0.016-0.12 | 0.5-4 | ≥ 128 | 4 (≈ 8.32 µM) | MIC, Vitek 2 [23]: > 64 µg/mL; Sensibility [23]: R; Sensibility [24]: S; MIC [24]: ≤ 1 µg/mL; BMD (MIC) [25]: 128 µg/mL; FaAST (MIC) [26]: 64 µg/mL |
| C[C@@H](O)[C@H]1C(=O)N2C(C(=O)O)=C(SCCN=CN)C[C@H]12 [Imipenem, imipenem] | ≤ 0.25 | 1 | 1 | 16 | 128 | ≤ 0.25 | 1 | 32 | 1 | 32 | 1 | 2 | ≤ 0.25 | 1 | ≤ 0.25 | 1 | – | – | ≥ 128 | 0.5 (≈ 1.67 µM) | Sensibility [23]: R; Sensibility [24]: S; MIC [24]: ≤ 1 µg/mL; BMD (MIC) [25]: 32 µg/mL; FaAST (MIC) [26]: 64 µg/mL; BMD (MIC) [27]: 128 µg/mL; MIC, FDAA [28]: ≥256 µg/mL; MIC [29]: ≥ 16 µg/mL; Sensibility [29]: R; MIC, VITEK [30]: 1 µg/mL (≈ 3.34 µM); MIC, FaAST [31]: 1 µg/mL (≈ 3.34 µM); MIC, VITEK [32]: 128 µg/mL (≈ 428 µM); MIC, FaAST [33]: 128 µg/mL (≈ 428 µM) |
